According to ChEMBL document CHEMBL3259565 (ACS Med Chem Lett, 2014):
pIC50: −log10 of the molar value. Calls of active or inactive are those of the source. The calls are words filed in the database; no cut-off is given here.

What was measured:
[1] = biological target: T1, Histone-lysine N-methyltransferase EHMT1 (Homo sapiens) (UniProt Q9H9B1); assay: Inhibition of methyltransferase activity of EHMT1 (unknown origin)-mediated dimethylation of a biotinylated histone H3 peptide at lysine-9 at 100 uM by FRET-based LANCE ultra G9a assay
T1 sequence (whole entry): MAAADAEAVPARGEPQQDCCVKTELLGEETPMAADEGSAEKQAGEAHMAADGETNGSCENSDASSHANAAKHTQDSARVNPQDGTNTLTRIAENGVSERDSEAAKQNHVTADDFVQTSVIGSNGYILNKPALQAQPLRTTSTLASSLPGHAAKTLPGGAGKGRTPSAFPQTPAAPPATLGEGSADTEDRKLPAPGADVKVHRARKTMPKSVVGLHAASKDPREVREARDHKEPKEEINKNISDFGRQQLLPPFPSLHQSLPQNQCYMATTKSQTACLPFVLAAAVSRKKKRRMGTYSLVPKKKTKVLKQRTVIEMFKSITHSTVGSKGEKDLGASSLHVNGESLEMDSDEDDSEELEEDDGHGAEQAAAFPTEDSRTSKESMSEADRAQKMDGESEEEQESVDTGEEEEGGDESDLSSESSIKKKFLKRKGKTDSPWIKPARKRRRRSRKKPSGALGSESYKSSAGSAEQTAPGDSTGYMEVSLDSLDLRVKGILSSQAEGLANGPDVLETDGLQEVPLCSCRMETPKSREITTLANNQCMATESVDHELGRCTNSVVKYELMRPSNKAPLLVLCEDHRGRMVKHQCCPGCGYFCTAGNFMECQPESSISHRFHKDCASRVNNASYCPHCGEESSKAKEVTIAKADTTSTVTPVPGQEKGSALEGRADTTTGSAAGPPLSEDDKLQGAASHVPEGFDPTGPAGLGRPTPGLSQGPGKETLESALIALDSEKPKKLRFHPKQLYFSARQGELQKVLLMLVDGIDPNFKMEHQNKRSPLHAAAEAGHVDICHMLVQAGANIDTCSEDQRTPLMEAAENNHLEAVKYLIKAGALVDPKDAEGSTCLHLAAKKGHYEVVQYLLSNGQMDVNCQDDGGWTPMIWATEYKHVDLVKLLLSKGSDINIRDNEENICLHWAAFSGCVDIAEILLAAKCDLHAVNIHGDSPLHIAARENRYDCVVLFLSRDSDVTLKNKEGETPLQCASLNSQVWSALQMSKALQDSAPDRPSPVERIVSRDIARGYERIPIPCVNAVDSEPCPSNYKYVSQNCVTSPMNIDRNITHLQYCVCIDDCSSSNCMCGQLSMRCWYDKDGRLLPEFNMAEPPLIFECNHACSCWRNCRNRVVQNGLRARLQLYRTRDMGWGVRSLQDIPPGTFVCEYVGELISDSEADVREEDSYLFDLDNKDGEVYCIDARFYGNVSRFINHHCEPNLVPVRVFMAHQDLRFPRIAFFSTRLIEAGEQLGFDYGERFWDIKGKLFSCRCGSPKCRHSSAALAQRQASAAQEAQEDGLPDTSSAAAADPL

[2] = biological target: T2, Histone-lysine N-methyltransferase EHMT1 (Homo sapiens, UniProt Q9H9B1); assay: Inhibition of methyltransferase activity of EHMT1 (unknown origin)-mediated dimethylation of a biotinylated histone H3 peptide at lysine-9 by FRET-based LANCE ultra G9a assay
T2 sequence (Q9H9B1 whole entry): T1 sequence (whole entry)

[3] = biological target: T3, Histone-lysine N-methyltransferase EHMT2 (Homo sapiens, UniProt Q96KQ7); assay: Inhibition of methyltransferase activity of EHMT2 (unknown origin)-mediated dimethylation of a biotinylated histone H3 peptide at lysine-9 by FRET-based LANCE ultra G9a assay
T3 sequence (Q96KQ7 whole entry): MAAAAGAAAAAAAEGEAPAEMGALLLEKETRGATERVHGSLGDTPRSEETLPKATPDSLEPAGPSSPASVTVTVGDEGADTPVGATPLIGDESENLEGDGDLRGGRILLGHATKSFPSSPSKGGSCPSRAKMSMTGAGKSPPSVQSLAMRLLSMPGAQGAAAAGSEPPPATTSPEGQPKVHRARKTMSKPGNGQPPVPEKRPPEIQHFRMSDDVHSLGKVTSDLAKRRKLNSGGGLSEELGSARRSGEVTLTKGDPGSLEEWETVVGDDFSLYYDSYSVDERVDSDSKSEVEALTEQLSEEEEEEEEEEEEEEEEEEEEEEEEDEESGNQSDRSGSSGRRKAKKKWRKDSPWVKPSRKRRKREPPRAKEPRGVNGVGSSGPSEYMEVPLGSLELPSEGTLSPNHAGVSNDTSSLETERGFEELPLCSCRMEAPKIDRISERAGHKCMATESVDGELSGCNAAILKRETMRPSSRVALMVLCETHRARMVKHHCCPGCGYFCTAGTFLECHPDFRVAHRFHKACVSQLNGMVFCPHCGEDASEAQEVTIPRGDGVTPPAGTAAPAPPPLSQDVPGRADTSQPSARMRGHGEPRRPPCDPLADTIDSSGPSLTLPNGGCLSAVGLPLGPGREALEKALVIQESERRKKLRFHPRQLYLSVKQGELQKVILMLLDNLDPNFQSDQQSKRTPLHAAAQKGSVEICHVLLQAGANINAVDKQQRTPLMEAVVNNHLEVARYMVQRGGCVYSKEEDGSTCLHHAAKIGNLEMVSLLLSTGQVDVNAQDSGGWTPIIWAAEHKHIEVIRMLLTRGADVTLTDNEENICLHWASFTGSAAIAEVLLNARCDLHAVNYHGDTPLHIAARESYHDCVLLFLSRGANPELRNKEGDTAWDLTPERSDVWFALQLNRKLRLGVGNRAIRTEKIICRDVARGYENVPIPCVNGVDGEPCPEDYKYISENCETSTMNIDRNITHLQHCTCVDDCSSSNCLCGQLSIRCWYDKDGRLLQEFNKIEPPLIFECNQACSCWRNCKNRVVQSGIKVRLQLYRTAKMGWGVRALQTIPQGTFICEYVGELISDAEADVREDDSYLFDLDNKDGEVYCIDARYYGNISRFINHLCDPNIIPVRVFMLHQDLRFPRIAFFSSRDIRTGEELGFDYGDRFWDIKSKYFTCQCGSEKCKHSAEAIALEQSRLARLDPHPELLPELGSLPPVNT

[4] = biological target: T1, Histone-lysine N-methyltransferase EHMT1 (Homo sapiens); assay: Non-competitive inhibition of methyltransferase activity of EHMT1 (unknown origin)
[5] = biological target: T4, Histone-lysine N-methyltransferase EHMT2 (Homo sapiens) (UniProt Q96KQ7); assay: Non-competitive inhibition of methyltransferase activity of EHMT2 (unknown origin)
T4 sequence (whole entry): T3 sequence (Q96KQ7 whole entry)

[6] = biological target: T5, DNA (cytosine-5)-methyltransferase 1 (Homo sapiens, UniProt P26358); assay: Inhibition of DNMT1 (unknown origin) at 200 uM
T5 sequence (P26358 whole entry): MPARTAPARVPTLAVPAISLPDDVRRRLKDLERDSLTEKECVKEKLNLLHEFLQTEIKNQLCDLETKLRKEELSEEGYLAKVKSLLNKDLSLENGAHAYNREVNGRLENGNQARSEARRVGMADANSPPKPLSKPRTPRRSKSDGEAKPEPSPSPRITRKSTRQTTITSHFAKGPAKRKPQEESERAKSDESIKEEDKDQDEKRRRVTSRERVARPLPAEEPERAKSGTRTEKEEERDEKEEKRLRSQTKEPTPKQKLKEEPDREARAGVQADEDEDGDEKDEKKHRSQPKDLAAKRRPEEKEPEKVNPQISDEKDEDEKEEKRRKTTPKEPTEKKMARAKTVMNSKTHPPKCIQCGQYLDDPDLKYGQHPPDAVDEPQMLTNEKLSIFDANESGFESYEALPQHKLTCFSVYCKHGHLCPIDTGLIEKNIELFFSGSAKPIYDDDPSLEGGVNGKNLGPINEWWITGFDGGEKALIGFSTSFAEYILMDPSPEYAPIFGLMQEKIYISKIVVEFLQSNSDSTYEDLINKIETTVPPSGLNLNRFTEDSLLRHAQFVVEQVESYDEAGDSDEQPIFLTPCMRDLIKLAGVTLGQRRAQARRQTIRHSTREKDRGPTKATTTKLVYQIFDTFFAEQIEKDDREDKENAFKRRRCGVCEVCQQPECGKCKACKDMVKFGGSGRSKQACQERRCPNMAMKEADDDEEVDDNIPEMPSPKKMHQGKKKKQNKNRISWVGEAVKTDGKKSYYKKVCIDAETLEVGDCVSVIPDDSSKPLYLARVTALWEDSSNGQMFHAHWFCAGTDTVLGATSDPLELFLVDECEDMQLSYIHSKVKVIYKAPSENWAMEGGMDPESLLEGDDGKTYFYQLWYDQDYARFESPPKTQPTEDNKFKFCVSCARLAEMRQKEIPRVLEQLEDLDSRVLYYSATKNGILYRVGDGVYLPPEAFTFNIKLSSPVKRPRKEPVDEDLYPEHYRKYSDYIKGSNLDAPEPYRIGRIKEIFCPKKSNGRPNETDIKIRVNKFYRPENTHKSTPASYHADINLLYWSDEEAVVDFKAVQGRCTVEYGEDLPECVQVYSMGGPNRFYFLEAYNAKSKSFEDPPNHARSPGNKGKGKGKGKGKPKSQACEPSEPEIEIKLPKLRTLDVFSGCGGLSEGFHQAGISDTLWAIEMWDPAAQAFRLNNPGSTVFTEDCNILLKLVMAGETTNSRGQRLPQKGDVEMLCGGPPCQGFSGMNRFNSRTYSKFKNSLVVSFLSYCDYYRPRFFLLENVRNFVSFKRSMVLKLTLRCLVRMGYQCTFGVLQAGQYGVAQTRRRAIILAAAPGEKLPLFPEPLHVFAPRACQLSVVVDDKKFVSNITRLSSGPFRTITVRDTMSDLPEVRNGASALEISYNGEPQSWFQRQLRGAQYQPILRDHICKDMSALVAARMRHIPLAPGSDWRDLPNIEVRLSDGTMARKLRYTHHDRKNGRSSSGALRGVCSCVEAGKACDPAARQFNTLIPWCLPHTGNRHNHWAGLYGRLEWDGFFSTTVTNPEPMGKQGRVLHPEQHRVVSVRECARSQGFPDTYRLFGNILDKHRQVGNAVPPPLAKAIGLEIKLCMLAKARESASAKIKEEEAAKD

[7] = biological target: Protein arginine N-methyltransferase 1 (Homo sapiens) (UniProt Q99873); assay: Inhibition of PRMT1 (unknown origin) at 200 uM
Sequence of Protein arginine N-methyltransferase 1 (Homo sapiens) (Q99873 whole entry, looked up): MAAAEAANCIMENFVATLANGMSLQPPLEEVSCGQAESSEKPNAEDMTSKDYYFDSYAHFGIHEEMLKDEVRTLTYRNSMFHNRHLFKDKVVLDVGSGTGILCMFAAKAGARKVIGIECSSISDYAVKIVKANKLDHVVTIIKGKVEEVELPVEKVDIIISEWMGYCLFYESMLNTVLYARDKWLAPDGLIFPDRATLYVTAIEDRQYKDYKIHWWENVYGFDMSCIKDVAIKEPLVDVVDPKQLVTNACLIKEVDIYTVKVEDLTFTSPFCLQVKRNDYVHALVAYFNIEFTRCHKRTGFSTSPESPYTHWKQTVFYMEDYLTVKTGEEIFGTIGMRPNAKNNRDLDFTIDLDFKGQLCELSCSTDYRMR

[8] = biological target: T6, Histone-lysine N-methyltransferase SETD7 (Homo sapiens) (UniProt Q8WTS6); assay: Inhibition of SET7/9 (unknown origin) at 200 uM
T6 sequence (whole entry): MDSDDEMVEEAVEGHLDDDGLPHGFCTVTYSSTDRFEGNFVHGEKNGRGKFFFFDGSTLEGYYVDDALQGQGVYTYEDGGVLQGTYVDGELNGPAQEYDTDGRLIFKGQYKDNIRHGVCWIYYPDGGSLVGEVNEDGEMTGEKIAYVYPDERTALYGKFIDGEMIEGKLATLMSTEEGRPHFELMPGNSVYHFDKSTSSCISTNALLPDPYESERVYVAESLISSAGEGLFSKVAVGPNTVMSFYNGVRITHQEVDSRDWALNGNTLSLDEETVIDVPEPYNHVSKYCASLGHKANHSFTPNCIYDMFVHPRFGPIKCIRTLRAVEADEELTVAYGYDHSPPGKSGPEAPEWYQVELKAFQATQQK

[9] = biological target: T5, DNA (cytosine-5)-methyltransferase 1; assay: Inhibition of DNMT1 (unknown origin)

Structure (SMILES)	inhibition [1] [%]	pIC50 [2]	pIC50 [3]	inhibition [4]	inhibition [5]	inhibition [6]	inhibition [7]	inhibition [8]	pIC50 [9]
COc1ccc(CC(N)C[C@H]2O[C@@H](n3cnc4c(N)ncnc43)[C@H](O)[C@@H]2O)cc1OC (stereo partly drawn)	> 40	3.83	3.80						
Nc1ncnc2c1ncn2[C@@H]1O[C@H](CCCc2ccccc2)[C@@H](O)[C@H]1O	> 40	3.63	3.72						
Nc1ncnc2c1ncn2[C@@H]1O[C@H](C[C@@H](N)CC[C@H](N)C(=O)O)[C@@H](O)[C@H]1O [SINEFUNGIN]		3.29							

These reach a higher pIC50 [2]. Values come first.

inhibition [1] [%]	pIC50 [2]	pIC50 [3]	inhibition [4]	inhibition [5]	inhibition [6]	inhibition [7]	inhibition [8]	pIC50 [9]	Structure (SMILES)
> 40	4.06	3.99	Active	Active	inactive	inactive	inactive		CCCCC[C@H]1O[C@@H](n2cnc3c(N)ncnc32)[C@H](O)[C@@H]1O
> 40	5.82	5.80	Active	Active		inactive	inactive	3.75	Nc1ncnc2c1ncn2[C@@H]1O[C@H](CC(N)CC2CCCCC2)[C@@H](O)[C@H]1O (stereo partly drawn)
